How the values were obtained:
[1] = target: T1, STARD3 (Homo sapiens, UniProt Q14849); assay: Differential scanning fluorimetry (DSF), STARD3; assay type: binding; conditions: for STARD3 (DSF) ΔTm / ΔTm at 10 µM: single dose, Dose = 10 µM; for Kd: apparent Kd, mean of three experiments run in technical duplicates, read-out: STARD3 Kd,app (DSF); for STARD3 (DSF) ΔTmmax: maximal thermal shift
T1 construct: STARD3(216-444); made in house; host or cells: E. coli BL21(DE3)
T1 sequence (Q14849 216-444): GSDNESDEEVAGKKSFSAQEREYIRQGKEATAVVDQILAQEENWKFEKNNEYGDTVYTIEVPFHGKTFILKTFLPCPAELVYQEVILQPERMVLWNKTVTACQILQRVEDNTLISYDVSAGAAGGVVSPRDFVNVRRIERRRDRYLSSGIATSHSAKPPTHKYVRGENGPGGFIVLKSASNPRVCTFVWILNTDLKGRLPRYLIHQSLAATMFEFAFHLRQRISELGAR
Text: (§1) Protein expression constructs
(§2) Human ASTER domains of Aster-A(359-547), -B(364-552) and -C(318-504) were subcloned into a pGEX-6p-2rbs vector, thus introducing the cloning artifact ‘GPLGS’.3 The pGEX-6P-1-GST-OSBP(377- […]
(§3) a gift from James H. Hurley (University of California).4 The pHIS_2His6_Thrombin_STARD4(2-205;C75S) plasmid was a gift from Young Jun Im (Chonnam National University).5 STARD5A was a gift from Nicola Burgess-Brown (Addgene plasmid #42392; http://n2t.net/addgene:42392; […]
(§4) Protein expression and purification […]
(§5) vectors including an N-terminal PreScission-cleavable glutathione S-transferase (GST)-tag were expressed in Escherichia coli (E. coli) OverExpress C41 in Terrific Broth (TB) medium for 16 h at 18 °C after the induction with 0.1 mM isopropyl β-D-1-thiogalactopyranoside (IPTG). Cells were harvested at 3500 × g for 15 minutes and lysed by sonication in buffer containing 50 mM HEPES pH 7.5, 300 mM NaCl, 10 %v/v glycerol, 5 mM dithiothreitol (DTT), 0.1 %v/v Triton X-100 and protease inhibitor mix HP plus (Serva). The lysate was purified by affinity chromatography on a GSTrap FF column (Cytiva) using an ÄKTA Start (Cytiva) in buffer containing 50 mM HEPES pH 7.5, 300 mM NaCl, 10 %v/v glycerol, 5 mM DTT and 0.01 %v/v Triton X-100. The GST-tag was cleaved overnight on the column at 4 °C. The Aster sterol binding domains were further purified by size-exclusion chromatography (SEC) on a HiLoad 16/600 Superdex 75 pg (Cytiva) in buffer containing 20 mM HEPES pH 7.5, 300 mM NaCl, 10 %v/v […]
(§6) STARD5(6-213) harboring an N-terminal His6-Tag were expressed in E. coli BL21(DE3) in Luria-Bertani Broth (LB) medium for approximately 16 h at 18 °C after induction with 0.15 mM IPTG. Cells were harvested at 3500 × g for 15 minutes and lysed by sonication in buffer containing 50 mM HEPES pH 7.5, 150 mM NaCl, 5 %v/v glycerol, 5 mM DTT, 0.1 %v/v Triton X -100 and ethylenediaminetetraacetic acid (EDTA)-free protease inhibitor cocktail (Sigma-Aldrich). The cleared lysate was purified by affinity chromatography on a Ni-NTA Superflow Cartridge (Qiagen) using an ÄKTA Start (Cytiva) in buffer containing 50 mM HEPES pH 7.5, 150 mM NaCl, 5 %v/v glycerol, 5 mM DTT. START domains were eluted by using elution buffer containing 50 mM HEPES pH 7.5, 150 mM NaCl, 5 %v/v glycerol, 5 mM DTT and 500 mM imidazole. Proteins were further purified by SEC on a HiLoad 16/600 Superdex 75 pg (Cytiva) in buffer containing 20 mM HEPES pH 7.5, 150 mM NaCl, 5 %v/v glycerol and 2 mM DTT.
(§7) The ORP domain of human OSBP(377-807) in the pGEX-6p-1 vector with an N-terminal PreScission-cleavable GST-tag was expressed in E. coli OverExpress C41 in LB medium for 16 h at 18 °C after induction with 0.1 mM IPTG. Cells were harvested at 3500 × g for 15 minutes and lysed by sonication in buffer containing 20 mM HEPES pH 7.5, 300 mM NaCl, 10 %v/v glycerol, 5 mM DTT, 0.1 %v/v Triton X-100 and EDTA-free protease inhibitor cocktail (Sigma-Aldrich). The cleared lysate was purified by affinity chromatography on a GSTrap HF column (Cytiva) using an ÄKTA Start (Cytiva) in buffer containing 20 mM HEPES pH 7.5, 300 mM NaCl, 10 %v/v glycerol, 5 mM DTT. OSBP(377 -807) was eluted by using elution buffer containing 20 mM HEPES pH 7.5, 300 mM NaCl, 10 %v/v glycerol, 5 mM DTT and 10 mM reduced glutathione. Proteins were further purified by SEC on a HiLoad 16/600 Superdex 75 pg (Cytiva) using an ÄKTA Explorer (Cytiva) in buffer containing 20 mM HEPES pH 7.5, 150 mM NaCl, 10 %v/v glycerol and 2 mM DTT.
(§8) The ORP domains of human ORP1(534-950) in pET24b(+) and ORP2(49-480) in the pET24b(+) vector including an N-terminal His6-Tag were expressed in E. coli BL21(DE3) in TB medium for approximately 16 h at 18 °C after induction with 0.1 mM IPTG. Cells were collected at 3500 × g for 15 minutes and lysed by sonification in buffer containing 10 mM Tris-HCl pH 8, 300 mM NaCl, 5 % glycerol, 2 mM DTT, 0.1 % Triton X-100 and EDTA-free protease inhibitor cocktail (Sigma-Aldrich). The cleared […]

[2] = target: T2, Aster-B (Homo sapiens, UniProt Q3KR37); assay: Fluorescence polarisation (FP) competition with NBD-cholesterol, Aster-B; assay type: binding; conditions: for Aster-B (FP) inhibition / inhibition at 10 µM: single dose, Dose = 10 µM; for IC50: mean of three experiments run in technical duplicates
T2 construct: -B(364-552); GST (PreScission-cleavable) (N, cleaved yes); made in house; host or cells: E. coli OverExpress C41
T2 sequence (Q3KR37 364-552): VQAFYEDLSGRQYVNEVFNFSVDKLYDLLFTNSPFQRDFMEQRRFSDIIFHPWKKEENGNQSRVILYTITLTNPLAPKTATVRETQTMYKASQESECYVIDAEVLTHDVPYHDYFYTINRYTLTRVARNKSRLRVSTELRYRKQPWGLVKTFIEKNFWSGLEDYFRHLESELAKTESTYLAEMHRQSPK
Text: as §1, §2, §3, §4, §5, §6, §7, §8

| Structure (SMILES) | STARD3 (DSF) ΔTm [1] [°C] | Aster-B (FP) inhibition [2] [%] | ΔTm at 10 µM [1] [°C] | IC50 [2] [µM] | inhibition at 10 µM [2] [%] | Kd [1] [µM] | STARD3 (DSF) ΔTmmax [1] [°C] |
| --- | --- | --- | --- | --- | --- | --- | --- |
| C[C@]12CC[C@@H](O)C[C@H]1CCc1c2[nH]c2ccc(Cl)cc12 [Compound 10c] | -0.121 | -5 | – | – | – | – | – |
| CC12CCC3CC1CCC21C(=Nc2ccc(N4CCOCC4)cc21)O3 (racemic) [Compound 19a] | – | – | 1.2 | > 80 | 14 | – | – |
| CC(C)(C)OC(=O)N1CCN(c2ccc3c(c2)C24CCC5CC(CCC52C)OC4=N3)CC1 (stereo not shown) [Compound 19e] | – | – | 4.3 | > 80 | 14 | 9.51 | 8.0 |
| CC12CCC(O)CC1CCc1c2[nH]c2ccc(C(F)(F)F)cc12 (stereo not shown) [Compound 10g] | – | – | 0.227 | – | -2.5 | – | – |
| CC12CCC3CC1CCC21C(=Nc2ccc(Br)cc21)O3 (single isomer, unassigned; (+)) [(+)-15b] | – | – | 0.244 | > 80 | 3.33 | > 100 | 0.44 |
| Cc1cc2nc3c(nc2cc1C)[C@@]1(C)CC[C@@H](O)C[C@H]1CC3 [Compound 7b] | – | – | 0.0153 | – | 7.5 | – | – |
| Cc1ccc2[nH]c3c(c(=O)c2c1)C[C@@H]1C[C@H](O)CC[C@]31C [Compound 12] | – | – | -0.0694 | – | 11 | – | – |
| COc1ccc(-c2nc3c(s2)CC[C@@H]2C[C@H](O)CC[C@]32C)cc1 [Compound 8d] | – | – | 0.5 | – | 6 | – | – |
| Cc1c2c(nc3ccccc13)[C@@]1(C)CC[C@@H](O)C[C@H]1CC2 [Compound 2a] | – | – | -0.0816 | – | 14 | – | – |
| Cc1ccc2c(c1)C(=O)CC[C@@H]1C[C@H](O)CC[C@]1(C)C(=O)N2 [Compound 11c] | – | – | -0.0522 | – | 6 | – | – |
| CC12CCC3CC1CCC21C(=Nc2ccc(N4CCOCC4)cc21)O3 (single isomer, unassigned; (+)) [(+)-19a] | – | – | 1.5 | > 80 | 7.5 | > 100 | 3.6 |
| C[C@]12CC[C@@H](O)C[C@H]1CCC(=O)c1cc(Cl)cc(F)c1NC2=O [Compound 11f] | -0.0767 | 11 | – | – | – | – | – |
| C[C@]12CC[C@@H](O)C[C@H]1CCc1sc(-c3ccc(F)cc3)nc12 [Compound 8e] | 0.0572 | 8 | – | – | – | – | – |
| C[C@]12CC[C@@H]3C[C@H]1CC[C@@]21C(=Nc2ccc(N4CCN(Cc5ccncc5)CC4)cc21)O3 [Compound 24] | – | – | 3.8 | > 80 | 12 | 14.9 | 6.7 |
| Cc1ccc2c(c1)[C@@]13CC[C@@H]4C[C@@H](CC[C@@]41C)OC3=N2 [Compound 15e] | – | – | 0.167 | > 80 | 27 | – | – |
| C[C@]12CC[C@@H](O)C[C@H]1CCC(=O)c1cc(C(F)(F)F)ccc1NC2=O [Compound 11e] | – | – | -0.0434 | – | 7 | – | – |
| Cc1ccc2[nH]c3c(c2c1)CC[C@@H]1C[C@H](O)CC[C@]31C [Compound 10e] | – | – | 0.0774 | – | 1.67 | – | – |
| C[C@]12CC[C@@H](O)C[C@H]1CCC(=O)c1ccccc1NC2=O [Compound 11a] | -0.0327 | 10 | – | – | – | – | – |
| CCCCCN(c1ccc2c(c1)[C@@]13CC[C@@H]4C[C@@H](CC[C@@]41C)OC3=N2)c1ccc2c(c1)[C@@]13CC[C@@H]4C[C@@H](CC[C@@]41C)OC3=N2 [Compound 20b] | -0.0839 | 21 | – | – | – | – | – |
| COc1ccc2c(c1)C(=O)CC[C@@H]1C[C@H](O)CC[C@]1(C)C(=O)N2 [Compound 11d] | – | – | -0.119 | – | 4 | – | – |
| C[C@]12CC[C@@H](O)C[C@H]1CCC[C@]21NC(=O)c2ccccc2N1 [Compound 5a] | 0.0244 | 7 | -0.16 | – | 10 | – | – |
| CCOC(=O)c1ccc2[nH]c3c(c2c1)CC[C@@H]1C[C@H](O)CC[C@]31C [Compound 10k] | 0.08 | -4 | – | – | – | – | – |
| C[C@]12CC[C@@H]3C[C@H]1CC[C@@]21C(=Nc2ccc(F)cc21)O3 [Compound 15d] | – | – | 0.129 | > 80 | 11 | – | – |
| COc1ccc2[nH]c3c(c2c1)CC[C@@H]1C[C@H](O)CC[C@]31C [Compound 10f] | – | – | -0.0471 | – | 13 | – | – |
| COc1ccc2c(c1)[C@]1(O)CC[C@@H]3C[C@H](O)CC[C@]3(C)C1=N2 [Compound 14b] | – | – | 0.0447 | – | 17 | – | – |
| C[C@]12CC[C@@H]3C[C@H]1CC[C@@]21C(=Nc2ccc(Br)cc21)O3 (racemic) [Compound 15b] | – | – | 0.3 | > 80 | 19 | – | – |

From PMC11758220, “Identification of a Privileged Scaffold for Inhibition of Sterol Transport Proteins through the Synthesis and Ring Distortion of Diverse, Pseudo-Natural Products” (ACS Central Science, 2025)
